Measured values as given in publication PMC10905675, “INX-315, a Selective CDK2 Inhibitor, Induces Cell Cycle Arrest and Senescence in Solid Tumors” (Cancer Discovery, 2023).

Assays:
Experiment in all cases: SelectScreen ZLYTE
Type in all cases: biochemical
Details in all cases: INX-0315 at 100nM
PRKCQ (PKC theta) = target: T1, PRKCQ (PKC theta) (Homo sapiens, UniProt Q04759)
T1 construct: purchased Thermo Fisher Scientific SelectScreen (plus Nanosyn / Reaction Biology for CDK/cyclin lines)
Excerpt: (§1) INX-315 was first evaluated in the SelectScreen Biochemical Kinase Profiling at Thermo Fisher Scientific (Madison, WI). The primary screen consisted of INX-315 dosed at a single concentration of 100 nmol/L in 1% DMSO across each platform within the SelectScreen array of assays, LanthaScreen Eu Kinase Binding Assay; AdaptaScreen; and Z'LyteScreen using preestablished conditions at Thermo Fisher Scientific as shown in Supplementary Table S2. […] The follow-up screen consisted of 10-point dose–response curves for INX-315 from 1 µmol/L to 0.0495 nmol/L.

MAPK11 (p38 beta) = target: T2, MAPK11 (p38 beta) (Homo sapiens, UniProt Q15759)
T2 construct: purchased Thermo Fisher Scientific SelectScreen (plus Nanosyn / Reaction Biology for CDK/cyclin lines)
Excerpt: as §1

DYRK1B = target: T3, DYRK1B (Homo sapiens, UniProt Q9Y463)
T3 construct: purchased Thermo Fisher Scientific SelectScreen (plus Nanosyn / Reaction Biology for CDK/cyclin lines)
Excerpt: as §1

MAP2K1 (MEK1) = target: T4, MAP2K1 (MEK1) (Homo sapiens, UniProt Q02750)
T4 construct: purchased Thermo Fisher Scientific SelectScreen (plus Nanosyn / Reaction Biology for CDK/cyclin lines)
Excerpt: as §1

YES1 = target: T5, YES1 (Homo sapiens, UniProt P07947)
T5 construct: purchased Thermo Fisher Scientific SelectScreen (plus Nanosyn / Reaction Biology for CDK/cyclin lines)
Excerpt: as §1

CDK5/p25 = target: T6, CDK5/p25 (Homo sapiens, UniProt Q00535)
T6 construct: purchased BPS 40105
Excerpt: as §1

[1] = target: T7, MAPK14 (p38 alpha) Direct (Homo sapiens, UniProt Q16539)
T7 construct: purchased Thermo Fisher Scientific SelectScreen (plus Nanosyn / Reaction Biology for CDK/cyclin lines)
Excerpt: as §1

MAP4K5 (KHS1) = target: T8, MAP4K5 (KHS1) (Homo sapiens, UniProt Q9Y4K4)
T8 construct: purchased Thermo Fisher Scientific SelectScreen (plus Nanosyn / Reaction Biology for CDK/cyclin lines)
Excerpt: as §1

PRKCE (PKC epsilon) = target: T9, PRKCE (PKC epsilon) (Homo sapiens, UniProt Q02156)
T9 construct: purchased Thermo Fisher Scientific SelectScreen (plus Nanosyn / Reaction Biology for CDK/cyclin lines)
Excerpt: as §1

EGFR (ErbB1) L861Q = target: T10, EGFR (ErbB1) L861Q (Homo sapiens, UniProt P00533, L861Q)
T10 construct: purchased Thermo Fisher Scientific SelectScreen (plus Nanosyn / Reaction Biology for CDK/cyclin lines)
Excerpt: as §1

IRAK4 = target: T11, IRAK4 (Homo sapiens, UniProt Q9NWZ3)
T11 construct: purchased Thermo Fisher Scientific SelectScreen (plus Nanosyn / Reaction Biology for CDK/cyclin lines)
Excerpt: as §1

GRK4 = target: T12, GRK4 (Homo sapiens, UniProt P32298)
T12 construct: purchased Thermo Fisher Scientific SelectScreen (plus Nanosyn / Reaction Biology for CDK/cyclin lines)
Excerpt: as §1

PRKX = target: T13, PRKX (Homo sapiens, UniProt P51817)
T13 construct: purchased Thermo Fisher Scientific SelectScreen (plus Nanosyn / Reaction Biology for CDK/cyclin lines)
Excerpt: as §1

EEF2K = target: T14, EEF2K (Homo sapiens, UniProt O00418)
T14 construct: purchased Thermo Fisher Scientific SelectScreen (plus Nanosyn / Reaction Biology for CDK/cyclin lines)
Excerpt: as §1

ADRBK1 (GRK2) = target: T15, ADRBK1 (GRK2) (Homo sapiens, UniProt P25098)
T15 construct: purchased Thermo Fisher Scientific SelectScreen (plus Nanosyn / Reaction Biology for CDK/cyclin lines)
Excerpt: as §1

ERBB4 (HER4) = target: T16, ERBB4 (HER4) (Homo sapiens, UniProt Q15303)
T16 construct: purchased Thermo Fisher Scientific SelectScreen (plus Nanosyn / Reaction Biology for CDK/cyclin lines)
Excerpt: as §1

MAPK3 (ERK1) = target: T17, MAPK3 (ERK1) (Homo sapiens, UniProt P27361)
T17 construct: purchased Thermo Fisher Scientific SelectScreen (plus Nanosyn / Reaction Biology for CDK/cyclin lines)
Excerpt: as §1

MAP4K2 (GCK) = target: T18, MAP4K2 (GCK) (Homo sapiens, UniProt Q12851)
T18 construct: purchased Thermo Fisher Scientific SelectScreen (plus Nanosyn / Reaction Biology for CDK/cyclin lines)
Excerpt: as §1

MARK2 = target: T19, MARK2 (Homo sapiens, UniProt Q7KZI7)
T19 construct: purchased Thermo Fisher Scientific SelectScreen (plus Nanosyn / Reaction Biology for CDK/cyclin lines)
Excerpt: as §1

STK22B (TSSK2) = target: T20, STK22B (TSSK2) (Homo sapiens, UniProt Q96PF2)
T20 construct: purchased Thermo Fisher Scientific SelectScreen (plus Nanosyn / Reaction Biology for CDK/cyclin lines)
Excerpt: as §1

CLK3 = target: T21, CLK3 (Homo sapiens, UniProt P49761)
T21 construct: purchased Thermo Fisher Scientific SelectScreen (plus Nanosyn / Reaction Biology for CDK/cyclin lines)
Excerpt: as §1

AURKB (Aurora B) = target: T22, AURKB (Aurora B) (Homo sapiens, UniProt Q96GD4)
T22 construct: purchased Thermo Fisher Scientific SelectScreen (plus Nanosyn / Reaction Biology for CDK/cyclin lines)
Excerpt: as §1

PDGFRB (PDGFR beta) = target: T23, PDGFRB (PDGFR beta) (Homo sapiens, UniProt P09619)
T23 construct: purchased Thermo Fisher Scientific SelectScreen (plus Nanosyn / Reaction Biology for CDK/cyclin lines)
Excerpt: as §1

CSNK2A1 (CK2 alpha 1) = target: T24, CSNK2A1 (CK2 alpha 1) (Homo sapiens, UniProt P68400)
T24 construct: purchased Thermo Fisher Scientific SelectScreen (plus Nanosyn / Reaction Biology for CDK/cyclin lines)
Excerpt: as §1

MAPK9 (JNK2) = target: T25, MAPK9 (JNK2) (Homo sapiens, UniProt P45984)
T25 construct: purchased Thermo Fisher Scientific SelectScreen (plus Nanosyn / Reaction Biology for CDK/cyclin lines)
Excerpt: as §1

MARK4 = target: T26, MARK4 (Homo sapiens, UniProt Q96L34)
T26 construct: purchased Thermo Fisher Scientific SelectScreen (plus Nanosyn / Reaction Biology for CDK/cyclin lines)
Excerpt: as §1

MATK (HYL) = target: T27, MATK (HYL) (Homo sapiens, UniProt P42679)
T27 construct: purchased Thermo Fisher Scientific SelectScreen (plus Nanosyn / Reaction Biology for CDK/cyclin lines)
Excerpt: as §1

ABL1 E255K = target: T28, ABL1 E255K (Homo sapiens, UniProt P00519, E255K)
T28 construct: purchased Thermo Fisher Scientific SelectScreen (plus Nanosyn / Reaction Biology for CDK/cyclin lines)
Excerpt: as §1

PLK2 = target: T29, PLK2 (Homo sapiens, UniProt Q9NYY3)
T29 construct: purchased Thermo Fisher Scientific SelectScreen (plus Nanosyn / Reaction Biology for CDK/cyclin lines)
Excerpt: as §1

MUSK = target: T30, MUSK (Homo sapiens, UniProt O15146)
T30 construct: purchased Thermo Fisher Scientific SelectScreen (plus Nanosyn / Reaction Biology for CDK/cyclin lines)
Excerpt: as §1

FRAP1 (mTOR) = target: T31, FRAP1 (mTOR) (Homo sapiens, UniProt P42345)
T31 construct: purchased Thermo Fisher Scientific SelectScreen (plus Nanosyn / Reaction Biology for CDK/cyclin lines)
Excerpt: as §1

CAMK1D (CaMKI delta) = target: T32, CAMK1D (CaMKI delta) (Homo sapiens, UniProt Q8IU85)
T32 construct: purchased Thermo Fisher Scientific SelectScreen (plus Nanosyn / Reaction Biology for CDK/cyclin lines)
Excerpt: as §1

NTRK1 (TRKA) = target: T33, NTRK1 (TRKA) (Homo sapiens, UniProt P04629)
T33 construct: purchased Thermo Fisher Scientific SelectScreen (plus Nanosyn / Reaction Biology for CDK/cyclin lines)
Excerpt: as §1

CDC42 BPB (MRCKB) = target: T34, CDC42 BPB (MRCKB) (Homo sapiens, UniProt Q9Y5S2)
T34 construct: purchased Thermo Fisher Scientific SelectScreen (plus Nanosyn / Reaction Biology for CDK/cyclin lines)
Excerpt: as §1

CSNK2A2 (CK2 alpha 2) = target: T35, CSNK2A2 (CK2 alpha 2) (Homo sapiens, UniProt P19784)
T35 construct: purchased Thermo Fisher Scientific SelectScreen (plus Nanosyn / Reaction Biology for CDK/cyclin lines)
Excerpt: as §1

ABL1 = target: T36, ABL1 (Homo sapiens, UniProt P00519)
T36 construct: purchased Thermo Fisher Scientific SelectScreen (plus Nanosyn / Reaction Biology for CDK/cyclin lines)
Excerpt: as §1

PDGFRA T674I = target: T37, PDGFRA T674I (Homo sapiens, UniProt P16234, T674I)
T37 construct: purchased Thermo Fisher Scientific SelectScreen (plus Nanosyn / Reaction Biology for CDK/cyclin lines)
Excerpt: as §1

T13 sequence (P51817 whole entry): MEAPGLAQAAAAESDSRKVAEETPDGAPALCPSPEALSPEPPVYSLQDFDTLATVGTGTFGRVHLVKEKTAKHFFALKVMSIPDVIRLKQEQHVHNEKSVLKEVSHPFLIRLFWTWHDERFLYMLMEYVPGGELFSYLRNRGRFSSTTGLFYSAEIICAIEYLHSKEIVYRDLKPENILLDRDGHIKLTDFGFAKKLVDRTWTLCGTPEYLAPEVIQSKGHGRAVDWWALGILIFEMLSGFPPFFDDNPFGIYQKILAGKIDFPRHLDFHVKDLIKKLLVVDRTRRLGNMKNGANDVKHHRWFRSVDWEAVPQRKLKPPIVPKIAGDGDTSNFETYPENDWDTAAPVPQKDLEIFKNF
T9 sequence (Q02156 whole entry): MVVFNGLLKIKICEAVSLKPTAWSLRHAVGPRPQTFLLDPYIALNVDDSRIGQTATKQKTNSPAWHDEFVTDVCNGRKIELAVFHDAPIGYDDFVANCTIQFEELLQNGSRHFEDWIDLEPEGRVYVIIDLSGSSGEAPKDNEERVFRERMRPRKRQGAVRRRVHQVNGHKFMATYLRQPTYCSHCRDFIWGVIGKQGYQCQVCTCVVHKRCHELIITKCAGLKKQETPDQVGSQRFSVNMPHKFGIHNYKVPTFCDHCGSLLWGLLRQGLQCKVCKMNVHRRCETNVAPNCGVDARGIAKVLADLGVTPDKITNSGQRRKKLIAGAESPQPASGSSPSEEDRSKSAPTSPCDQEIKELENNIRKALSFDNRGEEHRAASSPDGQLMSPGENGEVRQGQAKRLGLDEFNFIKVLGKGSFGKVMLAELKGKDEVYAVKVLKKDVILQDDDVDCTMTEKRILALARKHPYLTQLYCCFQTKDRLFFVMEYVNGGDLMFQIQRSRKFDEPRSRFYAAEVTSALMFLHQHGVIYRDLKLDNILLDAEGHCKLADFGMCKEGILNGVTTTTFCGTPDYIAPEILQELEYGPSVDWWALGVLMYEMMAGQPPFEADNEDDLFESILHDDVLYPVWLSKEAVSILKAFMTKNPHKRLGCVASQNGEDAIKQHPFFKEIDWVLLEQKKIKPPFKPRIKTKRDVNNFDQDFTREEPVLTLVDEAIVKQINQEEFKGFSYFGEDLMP
T11 sequence (Q9NWZ3 whole entry): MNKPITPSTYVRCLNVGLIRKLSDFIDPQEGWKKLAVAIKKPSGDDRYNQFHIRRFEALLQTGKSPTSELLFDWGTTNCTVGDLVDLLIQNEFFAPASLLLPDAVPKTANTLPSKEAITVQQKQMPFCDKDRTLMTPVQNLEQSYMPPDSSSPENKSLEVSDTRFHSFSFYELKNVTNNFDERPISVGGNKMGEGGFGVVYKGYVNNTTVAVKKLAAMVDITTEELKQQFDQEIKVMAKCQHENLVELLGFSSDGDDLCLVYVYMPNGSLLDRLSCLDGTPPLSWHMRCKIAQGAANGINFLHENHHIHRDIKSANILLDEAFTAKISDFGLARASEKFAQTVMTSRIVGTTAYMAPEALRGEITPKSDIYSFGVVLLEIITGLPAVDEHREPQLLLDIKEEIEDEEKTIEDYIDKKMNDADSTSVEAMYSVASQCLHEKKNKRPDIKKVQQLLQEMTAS
T21 sequence (P49761 whole entry): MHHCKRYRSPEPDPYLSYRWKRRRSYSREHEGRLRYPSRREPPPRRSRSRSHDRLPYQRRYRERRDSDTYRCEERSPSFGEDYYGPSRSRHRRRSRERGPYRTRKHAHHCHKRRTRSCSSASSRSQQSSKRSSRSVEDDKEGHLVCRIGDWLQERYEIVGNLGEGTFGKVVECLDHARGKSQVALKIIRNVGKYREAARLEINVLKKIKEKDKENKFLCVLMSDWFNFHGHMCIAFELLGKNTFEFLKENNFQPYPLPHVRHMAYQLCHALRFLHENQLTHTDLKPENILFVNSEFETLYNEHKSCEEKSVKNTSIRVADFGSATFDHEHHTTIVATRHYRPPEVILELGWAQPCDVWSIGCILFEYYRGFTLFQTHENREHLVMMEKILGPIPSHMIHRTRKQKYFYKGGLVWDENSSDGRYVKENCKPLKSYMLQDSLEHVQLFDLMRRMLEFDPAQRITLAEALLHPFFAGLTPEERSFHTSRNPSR
T24 sequence (P68400 whole entry): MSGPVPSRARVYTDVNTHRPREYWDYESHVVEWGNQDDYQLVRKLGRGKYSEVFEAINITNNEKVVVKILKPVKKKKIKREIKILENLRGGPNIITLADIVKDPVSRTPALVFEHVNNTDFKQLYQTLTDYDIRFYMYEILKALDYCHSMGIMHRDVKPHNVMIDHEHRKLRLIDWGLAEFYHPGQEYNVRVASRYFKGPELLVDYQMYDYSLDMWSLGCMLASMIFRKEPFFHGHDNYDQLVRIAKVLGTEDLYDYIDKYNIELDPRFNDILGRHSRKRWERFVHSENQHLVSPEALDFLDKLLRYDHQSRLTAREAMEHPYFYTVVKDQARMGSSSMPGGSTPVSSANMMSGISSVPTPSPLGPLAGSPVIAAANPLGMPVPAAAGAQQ
T34 sequence (Q9Y5S2 whole entry): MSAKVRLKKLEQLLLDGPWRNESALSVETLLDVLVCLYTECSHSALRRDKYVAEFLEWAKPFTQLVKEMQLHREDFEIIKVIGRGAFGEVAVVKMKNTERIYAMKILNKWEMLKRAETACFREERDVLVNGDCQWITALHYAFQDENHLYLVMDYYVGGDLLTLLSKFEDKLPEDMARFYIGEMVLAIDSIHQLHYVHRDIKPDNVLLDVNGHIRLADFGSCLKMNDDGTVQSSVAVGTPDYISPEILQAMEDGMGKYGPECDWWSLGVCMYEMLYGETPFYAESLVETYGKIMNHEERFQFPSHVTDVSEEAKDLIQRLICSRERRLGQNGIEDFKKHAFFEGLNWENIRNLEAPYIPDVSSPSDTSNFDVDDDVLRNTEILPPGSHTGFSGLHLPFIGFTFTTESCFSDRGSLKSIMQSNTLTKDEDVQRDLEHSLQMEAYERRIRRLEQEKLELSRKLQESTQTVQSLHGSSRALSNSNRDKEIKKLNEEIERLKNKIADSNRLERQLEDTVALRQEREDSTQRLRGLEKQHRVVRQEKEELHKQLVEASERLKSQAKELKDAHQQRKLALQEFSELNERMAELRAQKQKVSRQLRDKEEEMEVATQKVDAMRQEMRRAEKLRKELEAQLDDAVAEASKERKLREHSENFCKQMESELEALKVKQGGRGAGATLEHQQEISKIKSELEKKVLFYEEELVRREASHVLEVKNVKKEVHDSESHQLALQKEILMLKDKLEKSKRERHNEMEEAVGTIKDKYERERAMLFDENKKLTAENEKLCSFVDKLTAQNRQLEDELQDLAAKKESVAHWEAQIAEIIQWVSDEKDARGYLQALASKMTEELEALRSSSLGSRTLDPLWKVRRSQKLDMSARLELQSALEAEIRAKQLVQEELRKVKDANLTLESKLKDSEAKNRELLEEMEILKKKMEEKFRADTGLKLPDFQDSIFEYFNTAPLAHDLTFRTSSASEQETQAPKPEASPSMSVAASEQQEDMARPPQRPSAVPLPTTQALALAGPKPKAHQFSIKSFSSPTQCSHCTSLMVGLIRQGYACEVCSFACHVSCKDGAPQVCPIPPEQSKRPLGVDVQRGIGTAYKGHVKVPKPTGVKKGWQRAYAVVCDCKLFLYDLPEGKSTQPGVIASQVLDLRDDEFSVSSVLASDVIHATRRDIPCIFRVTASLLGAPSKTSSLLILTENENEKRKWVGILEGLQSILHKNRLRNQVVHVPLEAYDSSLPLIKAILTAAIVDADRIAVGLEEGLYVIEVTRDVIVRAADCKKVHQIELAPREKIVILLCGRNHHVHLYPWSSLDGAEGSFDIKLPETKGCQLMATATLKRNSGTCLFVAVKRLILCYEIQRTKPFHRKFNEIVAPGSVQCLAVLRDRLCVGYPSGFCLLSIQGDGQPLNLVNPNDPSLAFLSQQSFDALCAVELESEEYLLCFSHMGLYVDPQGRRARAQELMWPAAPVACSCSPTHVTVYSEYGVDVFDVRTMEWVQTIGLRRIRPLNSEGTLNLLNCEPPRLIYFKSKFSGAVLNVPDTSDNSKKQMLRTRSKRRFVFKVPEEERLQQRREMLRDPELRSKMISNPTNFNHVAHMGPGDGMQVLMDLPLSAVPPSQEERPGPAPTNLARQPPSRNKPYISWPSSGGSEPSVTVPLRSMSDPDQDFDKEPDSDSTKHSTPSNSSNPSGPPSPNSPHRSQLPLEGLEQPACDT
T1 sequence (Q04759 whole entry): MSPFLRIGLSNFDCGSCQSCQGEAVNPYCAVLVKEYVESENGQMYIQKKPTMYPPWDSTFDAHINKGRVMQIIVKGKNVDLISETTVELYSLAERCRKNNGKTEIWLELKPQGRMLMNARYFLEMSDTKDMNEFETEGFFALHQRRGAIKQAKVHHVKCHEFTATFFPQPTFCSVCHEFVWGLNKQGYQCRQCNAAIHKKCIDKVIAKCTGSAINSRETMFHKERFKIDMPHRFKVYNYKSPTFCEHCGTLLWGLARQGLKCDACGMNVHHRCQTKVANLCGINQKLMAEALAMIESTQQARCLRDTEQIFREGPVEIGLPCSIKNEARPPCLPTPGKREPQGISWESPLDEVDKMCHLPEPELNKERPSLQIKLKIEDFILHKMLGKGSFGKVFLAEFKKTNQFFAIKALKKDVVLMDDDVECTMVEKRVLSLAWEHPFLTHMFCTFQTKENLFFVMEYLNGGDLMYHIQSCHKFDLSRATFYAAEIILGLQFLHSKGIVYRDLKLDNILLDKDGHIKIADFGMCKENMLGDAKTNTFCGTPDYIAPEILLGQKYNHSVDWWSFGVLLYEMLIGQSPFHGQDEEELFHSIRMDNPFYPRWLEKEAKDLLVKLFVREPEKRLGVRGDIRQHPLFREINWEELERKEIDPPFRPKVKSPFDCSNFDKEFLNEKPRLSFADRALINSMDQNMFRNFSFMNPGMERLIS

In the case of NS(=O)(=O)c1ccc(Nc2ncc3cc4n(c3n2)C2(CCCCC2)C(=O)NN4)cc1 [INX-315], the inhibition at 0.1 µM (PRKCQ (PKC theta)) is reported as 8%, the inhibition at 0.1 µM (MAPK11 (p38 beta)) is reported as 7% and the inhibition at 0.1 µM (DYRK1B) is reported as 1%. For the same compound, the inhibition at 0.1 µM (MAP2K1 (MEK1)) was 15%, the inhibition at 0.1 µM (YES1) was 16% and the inhibition at 0.1 µM (CDK5/p25) was 93%. For the same compound, the inhibition at 0.1 µM [1] was 5%, the inhibition at 0.1 µM (MAP4K5 (KHS1)) was 23% and the inhibition at 0.1 µM (PRKCE (PKC epsilon)) was 3%. It also gave an inhibition at 0.1 µM (EGFR (ErbB1) L861Q) of 3%, an inhibition at 0.1 µM (IRAK4) of 10% and an inhibition at 0.1 µM (GRK4) of 31%. It also gave an inhibition at 0.1 µM (PRKX) of 3%, an inhibition at 0.1 µM (EEF2K) of 4% and an inhibition at 0.1 µM (ADRBK1 (GRK2)) of 0%. For the same compound, the inhibition at 0.1 µM (ERBB4 (HER4)) was 2%, the inhibition at 0.1 µM (MAPK3 (ERK1)) was 2% and the inhibition at 0.1 µM (MAP4K2 (GCK)) was 0%. The inhibition at 0.1 µM (MARK2) was 9%, the inhibition at 0.1 µM (STK22B (TSSK2)) was -2% and the inhibition at 0.1 µM (CLK3) was -1%. The inhibition at 0.1 µM (AURKB (Aurora B)) was 53%, the inhibition at 0.1 µM (PDGFRB (PDGFR beta)) was 25% and the inhibition at 0.1 µM (CSNK2A1 (CK2 alpha 1)) was 6%. For the same compound, the inhibition at 0.1 µM (MAPK9 (JNK2)) was -1%, the inhibition at 0.1 µM (MARK4) was 8% and the inhibition at 0.1 µM (MATK (HYL)) was 6%. It also gave an inhibition at 0.1 µM (ABL1 E255K) of 11%, an inhibition at 0.1 µM (PLK2) of 5% and an inhibition at 0.1 µM (MUSK) of 8%. It also gave an inhibition at 0.1 µM (FRAP1 (mTOR)) of 0%, an inhibition at 0.1 µM (CAMK1D (CaMKI delta)) of 1% and an inhibition at 0.1 µM (NTRK1 (TRKA)) of 44%. The inhibition at 0.1 µM (CDC42 BPB (MRCKB)) was -1%, the inhibition at 0.1 µM (CSNK2A2 (CK2 alpha 2)) was 4% and the inhibition at 0.1 µM (ABL1) was 14%. The inhibition at 0.1 µM (PDGFRA T674I) was -1%.
